Laboratory results: paper PMC12508063, “Chloroindazole based estrogen receptor β ligands with favorable pharmacokinetics promote functional remyelination and visual recovery” (Scientific Reports, 2025)
Several values for one entry are separate records, joined by “and”; a condition that tells them apart may be missing. Identical values can stand only once. Like-named read-outs stand apart in the source and are kept apart here.

Experiments:
EAE mice = assay: Optical coherence tomography (RNFL thickness) in EAE; type: in vivo, mouse; conditions: vs EAE + V
Method: Optical coherence tomography, electroretinograms and visual evoked potentials: OCT was acquired using the spectral domain‐OCT (R2200 840 nm HHP; Leica, Deerfield, IL) at peak EAE disease according to previously published methods[23],[28]. Each image was taken 3 times and averaged. Automatic segmentation of retinal layers was performed using Bioptigen Diver 3.0 software (Leica Microsystems, Deerfield, IL). ERG and VEPs were measured using the HMsERG200 ([…], Henderson, NV) as previously described[23],[28]. Animals were dark adapted for a minimum of 5 h prior to recording. During acquisition, animals were anesthetized with continuous 2% isoflurane. Traces were averaged and filtered for 60 Hz noise and a low-pass filter. MATLAB was used to adjust baselines and smoothed prior to measuring ERG and VEP amplitudes and latencies.
Optical coherence tomography: OCT was acquired using the spectral domain‐OCT (R2200 840 nm HHP; Leica, Deerfield, IL) at peak EAE disease according to previously published methods(8, 9). Each image was taken 3 times and averaged. Automatic segmentation of retinal layers was performed using Bioptigen Diver 3.0 software (Leica Microsystems, Deerfield, IL).

[1] = Pharmacokinetics and brain/plasma distribution in CD1 mice (IV, SC, PO); conditions: CD1 mouse
Method: (§3) Mice were dosed intravenously at 5 mg/kg, subcutaneously at 10 mg/kg, and orally at 25 mg/kg.
(§4) Only values above the LLOQ.(0.3 ng/mL) were plotted.

[2] = Plasma protein binding (human)
EAE mice optic tract = assay: Optic tract IHC in EAE; type: in vivo, mouse
From the text: (§1) Animal Perfusions, tissue preparation, and IHC: Mice were deeply anesthetized and euthanized with isoflurane and intracardially perfused with ice‐cold PBS followed by 10% formalin in PBS (Fisher Scientific, Hampton, NH). Eyes, optic nerves, and brain were collected and processed for IHC as previously described[23],[28]. Antibody details are listed in Supplementary Table S6.
(§2) Imaging and Quantification: Retina, optic nerve, and brain sections were imaged using an Olympus BX61 spinning disk confocal microscope with 10× and 40× objectives[23],[28]. Z-stack images were captured and processed using Slidebook 6 and cellSense software. Immunofluorescence intensity and cell counts were quantified using NIH ImageJ, and statistical analysis was performed with GraphPad Prism.
Treatment with K102 alleviated EAE-induced demyelination relative to vehicle-treated mice.
Perfusions, tissue preparation, and IHC: Mice were deeply anesthetized with isoflurane and intracardially perfused with ice‐cold PBS followed by 10% formalin in PBS (Fisher Scientific, Hampton, NH). Eyes, optic nerves, and brain were collected and processed for IHC as previously described(8, 9). Antibody details are listed in Supplementary Table S6.
Imaging and Quantification: Retina, optic nerve, and brain sections were imaged using an Olympus BX61 spinning disk confocal microscope equipped with 10x and 40x Super Apochromat objectives (Olympus America Inc., Cypress, CA) connected to a camera (Hamamatsu Orca‐R2). Z‐stack images were acquired, and projection images were compiled using Slidebook 6 and cellSense software (Intelligent Imaging Innovations Inc, Santa Monica, CA). Immunofluorescence intensity and cell numbers were assessed with NIH ImageJ software (v1. 50i http://rsb.info.nih.gov/ij/) and quantified. Results from all counts were analyzed in GraphPad Prism for statistical significance.

[3] = Oral PK of K102 at 40 mg/kg in female rats; type: in vivo, Sprague–Dawley rat; conditions: female rat, PO 40 mg/kg, mean
[4] = Liver microsome stability (mouse)
[5] = hepatocytes
[6] = plasma
EAE mice retina = assay: Retina IHC in EAE; type: in vivo, mouse
From the text: as §1, §2
RGC degeneration and pronounced GFAP immunoreactivity is evident in both MS and EAE[23],[28],[35],[36]. To quantify the number of RGCs, neuronal nuclear marker (NeuN) was used. […]
Imaging and Quantification: Retina, optic nerve, and brain sections were imaged using an Olympus BX61 spinning disk confocal microscope equipped with 10x and 40x Super Apochromat objectives (Olympus America Inc., Cypress, CA) connected to a camera (Hamamatsu Orca‐R2). […] Immunofluorescence intensity and cell numbers were assessed with NIH ImageJ software (v1. 50i http://rsb.info.nih.gov/ij/) and quantified. […]

CYP2C19 = CYP2C19 (Homo sapiens, UniProt P33261); conditions: 10 µM
CYP2C19, sequence (P33261 whole entry): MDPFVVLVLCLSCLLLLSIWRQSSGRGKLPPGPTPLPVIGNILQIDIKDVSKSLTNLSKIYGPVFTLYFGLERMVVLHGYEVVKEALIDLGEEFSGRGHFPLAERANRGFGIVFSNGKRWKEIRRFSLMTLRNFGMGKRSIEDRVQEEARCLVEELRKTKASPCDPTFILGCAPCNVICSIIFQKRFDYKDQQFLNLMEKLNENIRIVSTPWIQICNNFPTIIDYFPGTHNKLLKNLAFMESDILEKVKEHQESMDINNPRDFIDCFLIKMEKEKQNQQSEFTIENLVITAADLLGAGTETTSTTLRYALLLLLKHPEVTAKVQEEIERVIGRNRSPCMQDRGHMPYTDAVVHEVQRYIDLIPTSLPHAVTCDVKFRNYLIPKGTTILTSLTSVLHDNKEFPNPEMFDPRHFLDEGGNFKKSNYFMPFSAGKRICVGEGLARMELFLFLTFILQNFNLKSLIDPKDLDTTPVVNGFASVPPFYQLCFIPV

[7] = mouse, in vivo
Method: as §3, §4

Cc1cc(O)ccc1-n1nc2ccc(O)cc2c1Cl [Compound K102, IndCl-o-Me]
RNFL thickness (OCT) (EAE mice): prevented the significant reduction
Kp AUC0-t (brain/plasma) ([1]; IV 5 mg/kg): 0.43
Kp AUClast (brain/plasma) ([1]; IV 5 mg/kg): 0.41
Ratio of Cmax (brain/plasma) ([1]; IV 5 mg/kg): 0.54
Vss_obs ([1]; IV 5 mg/kg): 5.74 L/kg
AUC0-t ([1]; IV 5 mg/kg, brain): 211 ng·h/g
T1/2 ([1]; IV 5 mg/kg, brain): 52.2 min
Tmax ([1]; IV 5 mg/kg, brain): 6 min
AUC0-t ([1]; IV 5 mg/kg, plasma): 491 ng·h/mL
C0 or max ([1]; IV 5 mg/kg, plasma): 3256 ng/mL
Cl_obs ([1]; IV 5 mg/kg, plasma): 169 mL/min/kg
T1/2 ([1]; IV 5 mg/kg, plasma): 55.2 min
Kp AUC0-t (brain/plasma) ([1]; PO 25 mg/kg): 0.40
Ratio of Cmax (brain/plasma) ([1]; PO 25 mg/kg): 0.59
AUC0-t ([1]; PO 25 mg/kg, brain): 391 ng·h/g
Cmax ([1]; PO 25 mg/kg, brain): 279 ng/g
Tmax ([1]; PO 25 mg/kg, brain): 15 min
T1/2 (brain retention) ([1]; PO 25 mg/kg, brain, 25 mg/kg): 288 min and 287 min
AUC0-t ([1]; PO 25 mg/kg, plasma): 991 ng·h/mL
Cmax ([1]; PO 25 mg/kg, plasma): 471 ng/mL
T1/2 ([1]; PO 25 mg/kg, plasma): 611.4 min
Tmax ([1]; PO 25 mg/kg, plasma): 4.98 min
F (Bioavailability) ([1]; PO 25 mg/kg, plasma, 25 mg/kg): 40% and 40.4%
AUCinf plasma ([1]; PO 25 mpk): 991 ng·h/mL
Brain/Plasma Ratio(%) ([1]; PO 25 mpk): 40%
Kp AUC0-t (brain/plasma) ([1]; SC 10 mg/kg): 0.35
Kp AUClast (brain/plasma) ([1]; SC 10 mg/kg): 0.35
Ratio of Cmax (brain/plasma) ([1]; SC 10 mg/kg): 0.24
AUC0-t ([1]; SC 10 mg/kg, brain): 477 ng·h/g
Cmax ([1]; SC 10 mg/kg, brain): 218 ng/g
Tmax ([1]; SC 10 mg/kg, brain): 30 min
T1/2 (brain retention) ([1]; SC 10 mg/kg, brain, 10 mg/kg): 120 min
T1/2 (brain retention) ([1]; SC 10 mg/kg, brain, listed as IndCl-o-Me, 10 mg/kg): 118 min
AUC0-t ([1]; SC 10 mg/kg, plasma): 1385 ng·h/mL
Cmax ([1]; SC 10 mg/kg, plasma): 919 ng/mL
T1/2 ([1]; SC 10 mg/kg, plasma): 134 min
Tmax ([1]; SC 10 mg/kg, plasma): 4.98 min
AUCinf brain ([1]; SC 10 mpk): 480 ng·h/g
AUCinf plasma ([1]; SC 10 mpk): 1390 ng·h/mL
Brain/Plasma Ratio(%) ([1]; SC 10 mpk): 35%
Protein Binding (% Bound) Human [2]: 97.08%
GFAP, mean value (EAE mice optic tract): significantly reduced
Iba1, mean value (EAE mice optic tract): significantly reduced
MBP, mean value (EAE mice optic tract): alleviated
NFM, mean value (EAE mice optic tract): significantly increased
SARM1, mean value (EAE mice optic tract): did not produce a significant change
GFAP, mean value (EAE mice optic tract; listed as 102): 14.14
Iba1, mean value (EAE mice optic tract; listed as 102): 9.623
MBP, mean value (EAE mice optic tract; listed as 102): 27.62
NFM, mean value (EAE mice optic tract; listed as 102): 18.64
SARM1, mean value (EAE mice optic tract; listed as 102): 11.45
AUCInf/D [3]: 235.1 kg·ng·h/mL/mg
AUClast [3]: 9403 ng·h/mL
Cmax [3]: 1657 ng/mL
Tmax [3]: 15 min
Liver Microsome Stability (Mouse) % Remaining (30 min) ([4]; 30 min): 30.18%
Liver Microsome Stability (Mouse) CLint ([4]; mouse, microsomes): 40.80 µL/min/mg protein
Liver Microsome Stability (Mouse) t1/2 ([4]; mouse, microsomes): 17.12 min

Oc1ccc(-n2nc3ccc(O)cc3c2Cl)c(O)c1 [Compound K110, IndCl-o-OH]
Hepatocyte Stability (Mouse) t1/2 [5]: 6.15 min
Hepatocyte Stability (Mouse) % Remaining (15 min) ([5]; 0.25 h): 19.46%
Protein Binding (% Bound) Mouse [6]: 91.79%
GFAP, mean value (EAE mice retina): 6.695
NeuN (RGCs), mean value (EAE mice retina): 6.167
CYP Inhibition Percentage CYP2C19 (CYP2C19): 27.89%
Cl_obs ([7]; iv, 5 mg/kg): 158 mL/min/kg
Kp AUC0-t (brain/plasma) ([7]; iv, 5 mg/kg): 0.37
Kp AUClast (brain/plasma) ([7]; iv, 5 mg/kg): 0.37
Vss_obs ([7]; iv, 5 mg/kg): 2.23 L/kg
AUCinf brain ([7]; po, 25 mg/kg): 354 ng·h/g
AUCinf plasma ([7]; po, 25 mg/kg): 780 ng·h/mL
Brain/Plasma Ratio(%) ([7]; po, 25 mg/kg): 46%
Kp AUC0-t (brain/plasma) ([7]; po, 25 mg/kg): 0.46
Kp AUClast (brain/plasma) ([7]; po, 25 mg/kg): 0.41
AUCinf brain ([7]; sc, 10 mg/kg): 303 ng·h/g
AUCinf plasma ([7]; sc, 10 mg/kg): 1403 ng·h/mL
Brain/Plasma Ratio(%) ([7]; sc, 10 mg/kg): 22%
F (Bioavailability) ([7]; sc, 10 mg/kg): 133%
Kp AUC0-t (brain/plasma) ([7]; sc, 10 mg/kg): 0.22
Kp AUClast (brain/plasma) ([7]; sc, 10 mg/kg): 0.20
